Measured values published in patent publication US7598067B2, “PDEs and uses thereof” (priority 2000, dated 2009).
Several values for one entry are separate records, joined by “and”; a condition that tells them apart may be missing. Equal entries are not always repeated. Where two headings read alike, the source gives them in different places.

What was measured:
TbPDE2A [1] = molecular target: T1, TbPDE2A (Trypanosoma brucei, UniProt Q9GTN9); assay: Phosphodiesterase assay, recombinant TbPDE2A in yeast lysates; format: biochemical
T1 sequence (Q9GTN9 entry or part of it): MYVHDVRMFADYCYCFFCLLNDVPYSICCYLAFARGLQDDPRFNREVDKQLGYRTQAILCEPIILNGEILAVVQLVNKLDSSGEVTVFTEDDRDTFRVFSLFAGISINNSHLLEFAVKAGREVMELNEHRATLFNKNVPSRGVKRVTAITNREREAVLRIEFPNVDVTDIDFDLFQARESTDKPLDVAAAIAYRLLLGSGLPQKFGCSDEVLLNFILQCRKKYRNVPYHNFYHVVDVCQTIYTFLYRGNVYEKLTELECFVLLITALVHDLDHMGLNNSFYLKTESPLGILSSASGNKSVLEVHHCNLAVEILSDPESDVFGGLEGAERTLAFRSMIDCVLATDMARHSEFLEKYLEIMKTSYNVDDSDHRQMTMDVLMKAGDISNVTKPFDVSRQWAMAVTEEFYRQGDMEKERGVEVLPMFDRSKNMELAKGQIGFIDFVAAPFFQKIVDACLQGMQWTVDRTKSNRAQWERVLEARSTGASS
Description: Yeast cell lysis. Yeast cells grown to mid- to end-log phase in SC-leu medium were collected, resuspended quickly in an original volume of prewarmed YPD medium and incubated for an additional 3 h at 30° C. in order to maximize protein expression. Cells were then harvested, washed once in water and once in HBBB buffer (Hank's balanced salt solution, containing 50 mM HEPES, pH 7.5). The washed cell pellet was suspended in an equal volume of HBB containing a protease inhibitor cocktail (Complete™, Roche Molecular Biochemicals). […] The cell lysate was clarified by centrifugation for 15 min at 15,000×g.
Phosphodiesterase Assay. […] […] Incubation was at 30° C. for 20 min. […] The precipitates were filtered through GF-C glass fiber fitters and filters were washed 3 times with ice-cold 1 mM NaOH/100 mM NaCl and were then dried and counted in liquid scintillation fluid (4 g/I omnifluor in toluene). All assays were carried out in triplicates and with three independent enzyme preparations. Controls for the efficiency of precipitation of cAMP and of AMP were always included. When assaying yeast cell extracts, control lysates from the PDE deletion strains transfected with empty vector was used as a background control. […] Inhibitors were dissolved in DMSO or ethanol, and the final concentration of the solvent never exceeded 1% in the assays reaction. Incubation times and enzyme concentrations were always adjusted so that less than 30% of the input substrate was hydrolyzed (2-5 μg total protein/100 μl assay). IC50 values were calculated by curve fitting on a four parameter dose-response model with variable slope, using the Prism software package of Graph Pad Inc., San Diego, Calif.

PDEs (Non-selective) = conditions: read-out: PDE Selectivity (IC50); cited from earlier work
human PDE8A [2] = molecular target: T2, human PDE8A (Homo sapiens, UniProt O60658); assay: Activity of sf9 expressed PDE8A, undigested or trypsin digested; format: biochemical; set-up: made in house; host or cells: Sf9 insect cells (supernatant of cell extract); conditions: undigested PDE8A
Description: (§1) Briefly, human PDE8A was expressed in Sf9 cells (ATCC, Manassas, Va.). […] The supernatant (10^6 cells/digestion) was isolated and digested with the indicated amounts of trypsin at the indicated times at 30° C. The digestion was stopped with a 100-fold excess of soybean trypsin inhibitor. The activity was assayed with 1 μM cAMP. […] The digested PDE8A was analyzed by Western blot analysis using a peptide antibody specific to the C-terminus (PIL13) or the P4G7 monoclonal antibody.
Target sequence in this assay (O60658 285-829): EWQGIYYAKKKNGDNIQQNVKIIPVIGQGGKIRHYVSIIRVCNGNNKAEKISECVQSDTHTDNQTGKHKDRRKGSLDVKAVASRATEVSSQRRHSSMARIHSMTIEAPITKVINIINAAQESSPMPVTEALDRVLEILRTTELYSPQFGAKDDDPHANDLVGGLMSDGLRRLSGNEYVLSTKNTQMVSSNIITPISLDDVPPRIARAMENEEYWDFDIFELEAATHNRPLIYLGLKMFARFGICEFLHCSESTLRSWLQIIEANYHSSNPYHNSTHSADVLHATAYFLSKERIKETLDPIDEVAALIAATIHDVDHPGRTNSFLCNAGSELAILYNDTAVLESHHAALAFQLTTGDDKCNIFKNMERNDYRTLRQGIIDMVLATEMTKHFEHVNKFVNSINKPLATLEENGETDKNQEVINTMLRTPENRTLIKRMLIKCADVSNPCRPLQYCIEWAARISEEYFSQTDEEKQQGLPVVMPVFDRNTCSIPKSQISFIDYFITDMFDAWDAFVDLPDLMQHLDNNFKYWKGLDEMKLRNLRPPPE

TbPDE2B = TbPDE2B (Trypanosoma brucei, UniProt Q9GQU6); assay: Phosphodiesterase assay, recombinant TbPDE2B expressed in HEK 293 cells; format: biochemical; conditions: for inhibition of recombinant TbPDE2B, in words: 1 μM [3H] cAMP, cGMP up to 200 μM
Chain of TbPDE2B (Q9GQU6 entry or part of it): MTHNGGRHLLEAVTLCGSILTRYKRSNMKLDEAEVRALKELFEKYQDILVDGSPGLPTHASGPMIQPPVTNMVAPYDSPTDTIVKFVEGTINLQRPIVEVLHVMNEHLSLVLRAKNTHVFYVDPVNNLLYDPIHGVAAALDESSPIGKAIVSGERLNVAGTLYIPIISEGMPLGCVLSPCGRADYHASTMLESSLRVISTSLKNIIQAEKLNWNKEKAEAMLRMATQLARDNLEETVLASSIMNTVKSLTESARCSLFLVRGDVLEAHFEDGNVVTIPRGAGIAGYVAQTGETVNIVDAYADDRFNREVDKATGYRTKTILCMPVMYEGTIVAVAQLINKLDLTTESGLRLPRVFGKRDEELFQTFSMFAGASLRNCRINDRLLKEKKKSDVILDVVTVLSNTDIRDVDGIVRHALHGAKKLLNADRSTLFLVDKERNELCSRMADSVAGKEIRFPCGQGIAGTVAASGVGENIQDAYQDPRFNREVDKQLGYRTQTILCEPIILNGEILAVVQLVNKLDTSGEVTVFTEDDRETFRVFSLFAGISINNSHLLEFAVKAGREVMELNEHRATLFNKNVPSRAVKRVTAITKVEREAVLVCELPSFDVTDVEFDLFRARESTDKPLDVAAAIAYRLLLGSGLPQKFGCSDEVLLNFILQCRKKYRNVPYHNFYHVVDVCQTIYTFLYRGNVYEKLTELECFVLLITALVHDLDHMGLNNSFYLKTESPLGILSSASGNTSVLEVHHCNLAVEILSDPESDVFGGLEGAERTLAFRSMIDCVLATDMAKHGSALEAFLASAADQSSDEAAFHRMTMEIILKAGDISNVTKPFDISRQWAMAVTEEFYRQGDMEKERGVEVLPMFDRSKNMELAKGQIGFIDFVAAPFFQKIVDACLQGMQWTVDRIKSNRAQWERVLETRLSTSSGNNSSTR
Description: Expression of T. brucei PDE. The ORF sequence for T. brucei PDE was subcloned into the pcDNA 3.1-TOPO vector (Invitrogen) according to the manual (Eukaryotic TOPO TA Cloning, version C) and plasmid DNA purified as described above. Human embryonic kidney 293 (HEK 293) cells were transfected with 12 μg of DNA in 60 μl of GenePORTER Transfection Reagent (Gene Therapy Systems, San Diego, Calif.) in 100-mm dishes and kept at 37° C. in 5% CO2 for 24 h. After this period fresh medium was added, and incubated under the same conditions for an additional 24 h. The same amount of pcDNA vector containing the sequence for the Green Fluorescent Protein (GFP) was transfected under identical conditions as a positive control for expression and as a negative control for PDE activity. Two plates were harvested at a time and homogenized with 1 ml of homogenization buffer containing 40 mM Tris-HCl, pH 7.5; 15 mM benzamidine; 15 mM 2-mercaptoethanol; 1 μg/ml pepstatin A; 1 μg/ml leupeptin and 5 mM EDTA. The cell suspension was immediately subjected to sonication (3×5 s) on ice. One volume of glycerol and 1 mg/ml of bovine serum albumin were added immediately to the homogenate.
Phosphodiesterase assay. […]

PDE8A [3] = assay: PDE activity of monoQ HPLC fractions of hut78 cells containing only PDE8A; format: biochemical, human; conditions: 0.01 μM cAMP
Description: (§2) Since pure CD4^+ T cells can only be obtained in limited quantities, a human CD4^+ T cell line, hut78, (ATCC, Manassas, Va.), was used to study the activity of PDE8A. Hut78 cells (2×10^8) were resuspended in 20 mM Tris pH 7.5 buffer containing protease inhibitors (Boehringer Mannheim, Indianapolis, Ind.) and sonicated. The supernatant was removed after centrifugation at 15000×g for 10 minutes and applied to a Mono Q column attached to a Rainin Dynamax HPLC system (Ameryville, Calif.). A NaCl gradient (0-0.8M) was passed through the column and 250 uL fractions were collected. The fractions were assayed for activity using either 1 μM or 0.01 μM cAMP as substrate and the indicated concentration of inhibitor (FIG. 5). Western blot analysis was also performed (10 μL/well) using PDE7A or 8A antibodies.

PDE8A [4] = conditions: Fisher et al. 1998; cited from earlier work
human PDE8A [5] = molecular target: T2, human PDE8A; assay: Activity of sf9 expressed PDE8A, undigested or trypsin digested; format: biochemical; set-up: human PDE8A was expressed in Sf9 cells (ATCC, Manassas, Va.); This PDE8A was already N-terminally truncated at position 285; fused on or other part: N-terminal FLAG tag ([…]...) on the undigested construct; conditions: trypsin digested PDE8A; at 1 μM IBMX
Description: as §1
Target sequence in this assay (O60658 whole entry): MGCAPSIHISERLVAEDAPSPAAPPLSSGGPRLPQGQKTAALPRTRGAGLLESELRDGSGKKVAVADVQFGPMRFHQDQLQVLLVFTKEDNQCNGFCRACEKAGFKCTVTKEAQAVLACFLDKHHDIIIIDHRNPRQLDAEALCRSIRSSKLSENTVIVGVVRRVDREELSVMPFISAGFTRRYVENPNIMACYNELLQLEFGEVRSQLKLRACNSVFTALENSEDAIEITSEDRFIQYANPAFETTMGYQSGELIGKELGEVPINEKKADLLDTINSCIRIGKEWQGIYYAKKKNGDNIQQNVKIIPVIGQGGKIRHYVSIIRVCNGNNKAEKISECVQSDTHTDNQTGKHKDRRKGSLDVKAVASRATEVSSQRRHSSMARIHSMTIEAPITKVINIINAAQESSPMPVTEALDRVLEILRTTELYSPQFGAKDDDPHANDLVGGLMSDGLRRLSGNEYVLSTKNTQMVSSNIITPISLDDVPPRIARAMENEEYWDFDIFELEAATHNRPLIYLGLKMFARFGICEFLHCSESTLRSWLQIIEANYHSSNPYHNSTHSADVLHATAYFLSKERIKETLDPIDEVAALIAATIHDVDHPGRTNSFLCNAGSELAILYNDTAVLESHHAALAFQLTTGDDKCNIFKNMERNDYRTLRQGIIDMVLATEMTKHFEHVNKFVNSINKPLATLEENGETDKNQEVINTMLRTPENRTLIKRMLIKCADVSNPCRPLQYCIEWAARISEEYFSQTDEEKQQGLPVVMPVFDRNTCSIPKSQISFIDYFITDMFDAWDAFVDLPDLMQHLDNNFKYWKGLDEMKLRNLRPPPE

[6] = system: PDE8A and PDE7A from hut78 cells; assay: PDE activity of monoQ HPLC fractions of hut78 cells, low Km peak; format: biochemical, human; conditions: 0.01 μM cAMP; 10 μM rolipram or 100 μM IBMX
Description: as §2

PDE8A [7] = assay: Activity of immunoprecipitated PDE8A from Hut78 or CD4+ cells; format: biochemical, human
Description: Hut78 or CD4^+ cells were harvested at various points after stimulation with CD3 and CD28 antibodies. Cells were resuspended in IP buffer (20 mM Tris pH7.5, 100 mM NaCl, 1 mM benzamidine, 1 μg/mL leupeptin, 1 μg/mL pepstatin, 50 mM NaF, 2 mM EDTA) and sonicated. The cells were centrifuged at 15000×g for 10 minutes. The supernatant was precleared for 2 hours with 0.5 μg mouse IgG and 10 μL protein-G agarose (Santa Cruz Biotechnology, Santa Cruz, Calif.). PDE8A monoclonal antibody was preloaded onto 10 μL protein G-agarose and added to the precleared supernatant. The immunoprecipitations were agitated overnight at 4° C. and the beads washed three times with IP buffer containing 1M NaCl followed by one wash with IP buffer.

PDE 3 = conditions: read-out: PDE Selectivity (IC50); cited from earlier work
TbPDE2A [8] = molecular target: T1, TbPDE2A; conditions: Table 2, from reference; cited from earlier work
TbPDE2C = assay: Recombinant TbPDE2C expressed in S. cerevisiae; format: biochemical, Trypanosoma brucei
Text: We also have expressed a second family member, TbPDE2C, as a recombinant protein in the yeast S. cerevisiae and have characterized it was previously done for TbPDE2A.

PDE 8 = conditions: read-out: PDE Selectivity (IC50); cited from earlier work
[9] = system: total PDE activity of trypanosomal cell extracts; assay: Total PDE activity in trypanosomal cell extracts; format: biochemical, Trypanosoma brucei
Text: Chemical validation of the TbPDE2 family as a potential drug target. One of the novel PDEs of the invention, TbPDE2A, was expressed as a recombinant protein and was characterized in detail (see above). […].

PDE 10 = conditions: read-out: PDE Selectivity (IC50); cited from earlier work
PDE 6 = conditions: read-out: PDE Selectivity (IC50); cited from earlier work
[10] = full-size TbPDE2A, yeast lysates, 1 μM cAMP

Compound: CC(C)Cn1c(=O)n(C)c(=O)c2[nH]cnc21 [IBMX, 3-Isobutyl-1-methylxanthine]
- effectiveness on TbPDE2A, in words (TbPDE2A [1]): not effective
- effect on TbPDE2A activity in initial screening (TbPDE2A [1]; 100 μM inhibitor, 1 μM cAMP, FIG. 26): ineffective
- IC50 (TbPDE2A [1]; [10]): 545 µM
- IC50 (PDEs (Non-selective)): 2 to 50 µM
- IBMX inhibition of undigested PDE8A (human PDE8A [2]): resistant
- activity of undigested PDE8A (human PDE8A [2]; at 1 μM IBMX): unchanged
- IC50 (TbPDE2B): > 1000 µM
- inhibition of recombinant TbPDE2B, in words (TbPDE2B): extremely low sensitivity
- activity of fractions that contained only PDE8A (PDE8A [3]): inhibited
- sensitivity of recombinant expressed PDE8A (PDE8A [4]): resistant
- activity retained (human PDE8A [5]): 40%
- sensitivity of the PDE activity peak [6]: sensitive
- immunoprecipitated PDE8A activity from hut78 cells (PDE8A [7]; 100 μM IBMX, FIG. 6A): inhibited
- increase in immunoprecipitated PDE8A activity after activation (PDE8A [7]; CD4+ T cells): could be inhibited

Compound: CSc1ccc(C(=O)c2[nH]c(=O)[nH]c2C)cc1 [Enoximone, enoximone]
- IC50 (TbPDE2B): > 100 µM
- inhibition of recombinant TbPDE2B, in words (TbPDE2B): No IC50 could be obtained
- IC50 (PDE 3): 1 µM

Compound: Nc1nc2c(ncn2[C@@H]2O[C@@H]3COP(=O)(O)O[C@H]3[C@H]2O)c(=O)[nH]1 [cGMP]
- cAMP hydrolysis by TbPDE2A in the presence of cGMP (TbPDE2A [1]; 100-fold excess of cGMP, full-size and truncated constructs): unaffected
- inhibition of recombinant TbPDE2B, in words (TbPDE2B): not stimulated or inhibited
- IC50 (TbPDE2B; Substrate concentration 1 μM [3H]-cAMP, read-out: TbPDE2B IC50 (μM) (n = 3)): > 200 µM
- IC50 (TbPDE2A [8]): > 100 µM
- effect on activity of TbPDE2C (TbPDE2C): does not affect the activity

Compound: OCCN(CCO)c1nc(N2CCCCC2)c2nc(N(CCO)CCO)nc(N3CCCCC3)c2n1 [Dipyridamole, dipyridamole]
- IC50 (PDE 8): 4.5 µM
- IC50 (TbPDE2A [1]; [10]): 5.8 µM and 5.9 µM
- IC50 for TbPDE2A (μM) (TbPDE2A [1]; [10]): low micromolar range
- IC50 (TbPDE2B): 27 µM
- total PDE activity [9]: marked, if not complete, reduction
- IC50 (PDE 10): 1.1 µM
- IC50 (PDE 6): 0.38 µM
